Reference: US5530126A, “Process for the preparation of substituted 6-(pyrazol-3yl)-1,4-benzoxazin-3-ones” (Monsanto Company, priority 1994, dated 1996)

What was measured:
Assay type in all cases: in vivo
[1] = test system: Annual bluegrass; experiment: Pre-emergence herbicide test; details: read-out: % plant inhibition (Anbg); for inhibition at 1120 g/ha: 1.12 kg/ha; for inhibition at 11210 g/ha: 11.21 kg/ha
In short: (§1)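 Seeds placed atop topsoil compacted to 0.95 to 1.27 cm below pan rim. Active ingredient (known amount) applied to seed bed in organic solvent or water. Untreated topsoil layer added to level; greenhouse growth with subirrigation; % inhibition at usually 11 days.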

[2] = test system: Yellow nutsedge; experiment: Pre-emergence herbicide test; details: Cyperus, read-out: % plant inhibition (Yens); for inhibition at 1120 g/ha: 1.12 kg/ha; for inhibition at 11210 g/ha: 11.21 kg/ha
In short: as §1

[3] = test system: Morningglory; experiment: Pre-emergence herbicide test; details: Ipomoea, read-out: % plant inhibition (Mogl); for inhibition at 1120 g/ha: 1.12 kg/ha; for inhibition at 11210 g/ha: 11.21 kg/ha
In short: as §1

[4] = test system: Velvetleaf; experiment: Pre-emergence herbicide test; details: Abutilon theophrasti, read-out: % plant inhibition (Vele); for inhibition at 1120 g/ha: 1.12 kg/ha; for inhibition at 11210 g/ha: 11.21 kg/ha
In short: as §1

[5] = test system: Barnyardgrass; experiment: Pre-emergence herbicide test; details: Echinochloa crus-galli, read-out: % plant inhibition (Bygr); for inhibition at 1120 g/ha: 1.12 kg/ha; for inhibition at 11210 g/ha: 11.21 kg/ha
In short: as §1

[6] = test system: Seedling johnsongrass; experiment: Pre-emergence herbicide test; details: Sorghum halepense, read-out: % plant inhibition (Sejg); for inhibition at 1120 g/ha: 1.12 kg/ha; for inhibition at 11210 g/ha: 11.21 kg/ha
In short: as §1

[7] = test system: Wild buckwheat; experiment: Pre-emergence herbicide test; details: Fallopia convolvulus, read-out: % plant inhibition (Wibw); for inhibition at 1120 g/ha: 1.12 kg/ha; for inhibition at 11210 g/ha: 11.21 kg/ha
In short: as §1

[8] = test system: Indian Mustard; experiment: Pre-emergence herbicide test; details: Brassica juncea, read-out: % plant inhibition (Inmu); for inhibition at 1120 g/ha: 1.12 kg/ha; for inhibition at 11210 g/ha: 11.21 kg/ha
In short: as §1

[9] = test system: Cocklebur; experiment: Pre-emergence herbicide test; details: Xanthium strumarium, read-out: % plant inhibition (Cobu); for inhibition at 1120 g/ha: 1.12 kg/ha; for inhibition at 11210 g/ha: 11.21 kg/ha
In short: as §1

[10] = test system: Downy Brome; experiment: Pre-emergence herbicide test; details: Bromus tectorum, read-out: % plant inhibition (Dobr); for inhibition at 1120 g/ha: 1.12 kg/ha; for inhibition at 11210 g/ha: 11.21 kg/ha
In short: as §1

[11] = test system: Annual bluegrass; experiment: Post-emergence herbicide test; details: read-out: % plant inhibition (Anbg); for inhibition at 1120 g/ha: 1.12 kg/ha; for inhibition at 11210 g/ha: 11.21 kg/ha
In short: (§2)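 Rating of injury as % inhibition against control took place at ~11 days (10–14), and sometimes at ~25 days (24–28), following atomizer application (170.3 kPa, 1870 L/Ha, ~0.4% v/v emulsifier) to greenhouse plants aged 2–3 weeks.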

[12] = test system: Yellow nutsedge; experiment: Post-emergence herbicide test; details: Cyperus, read-out: % plant inhibition (Yens); for inhibition at 1120 g/ha: 1.12 kg/ha; for inhibition at 11210 g/ha: 11.21 kg/ha
In short: as §2

[13] = test system: Morningglory; experiment: Post-emergence herbicide test; details: Ipomoea, read-out: % plant inhibition (Mogl); for inhibition at 1120 g/ha: 1.12 kg/ha; for inhibition at 11210 g/ha: 11.21 kg/ha
In short: as §2

[14] = test system: Velvetleaf; experiment: Post-emergence herbicide test; details: Abutilon theophrasti, read-out: % plant inhibition (Vele); for inhibition at 1120 g/ha: 1.12 kg/ha; for inhibition at 11210 g/ha: 11.21 kg/ha
In short: as §2

[15] = test system: Barnyardgrass; experiment: Post-emergence herbicide test; details: Echinochloa crus-galli, read-out: % plant inhibition (Bygr); for inhibition at 1120 g/ha: 1.12 kg/ha; for inhibition at 11210 g/ha: 11.21 kg/ha
In short: as §2

[16] = test system: Seedling johnsongrass; experiment: Post-emergence herbicide test; details: Sorghum halepense, read-out: % plant inhibition (Sejg); for inhibition at 1120 g/ha: 1.12 kg/ha; for inhibition at 11210 g/ha: 11.21 kg/ha
In short: as §2

[17] = test system: Wild buckwheat; experiment: Post-emergence herbicide test; details: Fallopia convolvulus, read-out: % plant inhibition (Wibw); for inhibition at 1120 g/ha: 1.12 kg/ha; for inhibition at 11210 g/ha: 11.21 kg/ha
In short: as §2

[18] = test system: Indian Mustard; experiment: Post-emergence herbicide test; details: Brassica juncea, read-out: % plant inhibition (Inmu); for inhibition at 1120 g/ha: 1.12 kg/ha; for inhibition at 11210 g/ha: 11.21 kg/ha
In short: as §2

[19] = test system: Cocklebur; experiment: Post-emergence herbicide test; details: Xanthium strumarium, read-out: % plant inhibition (Cobu); for inhibition at 1120 g/ha: 1.12 kg/ha; for inhibition at 11210 g/ha: 11.21 kg/ha
In short: as §2

[20] = test system: Downy Brome; experiment: Post-emergence herbicide test; details: Bromus tectorum, read-out: % plant inhibition (Dobr); for inhibition at 1120 g/ha: 1.12 kg/ha; for inhibition at 11210 g/ha: 11.21 kg/ha
In short: as §2

Structure (SMILES)	inhibition at 1120 g/ha [1] [%]	inhibition at 1120 g/ha [2] [%]	inhibition at 1120 g/ha [3] [%]	inhibition at 1120 g/ha [4] [%]	inhibition at 1120 g/ha [5] [%]	inhibition at 1120 g/ha [6] [%]	inhibition at 1120 g/ha [7] [%]	inhibition at 1120 g/ha [8] [%]	inhibition at 1120 g/ha [9] [%]	inhibition at 1120 g/ha [10] [%]	inhibition at 1120 g/ha [11] [%]	inhibition at 1120 g/ha [12] [%]	inhibition at 1120 g/ha [13] [%]	inhibition at 1120 g/ha [14] [%]	inhibition at 1120 g/ha [15] [%]	inhibition at 1120 g/ha [16] [%]	inhibition at 1120 g/ha [17] [%]	inhibition at 1120 g/ha [18] [%]	inhibition at 1120 g/ha [19] [%]	inhibition at 1120 g/ha [20] [%]	also measured
CCC(C)COC(=O)c1cc(-c2nn(C)c(C(F)(F)F)c2Cl)c(F)cc1Cl (centres unmarked) [Compound 140]	30	0	70	90	0	70	70	70	80	60	100	10	100	100	100	100	90	90	100	100	
Cn1nc(-c2cc(CCl)c(Cl)cc2F)c(Cl)c1C(F)(F)F [Compound 109]	20	0	70	90	90	80	100	90	30	20	40	10	60	100	30	20	90	40	40	0	
Cn1nc(C(F)(F)F)c(Cl)c1-c1cc(F)ccc1F [Compound 69]																					inhibition at 11210 g/ha [1]: 0%; inhibition at 11210 g/ha [2]: 0%; inhibition at 11210 g/ha [3]: 30%; inhibition at 11210 g/ha [4]: 50%; inhibition at 11210 g/ha [5]: 0%; inhibition at 11210 g/ha [6]: 0%; inhibition at 11210 g/ha [7]: 0%; inhibition at 11210 g/ha [8]: 0%; inhibition at 11210 g/ha [9]: 0%; inhibition at 11210 g/ha [10]: 0%; inhibition at 11210 g/ha [11]: 0%; inhibition at 11210 g/ha [12]: 0%; inhibition at 11210 g/ha [13]: 10%; inhibition at 11210 g/ha [14]: 10%; inhibition at 11210 g/ha [15]: 0%; inhibition at 11210 g/ha [16]: 0%; inhibition at 11210 g/ha [17]: 0%; inhibition at 11210 g/ha [18]: 0%; inhibition at 11210 g/ha [19]: 0%; inhibition at 11210 g/ha [20]: 0%
Cn1nc(-c2cc([N+](=O)[O-])c(Cl)cc2F)c(Cl)c1C(F)F [Compound 198]	0	0	0	80	0	0	70	20	0	0	50	0	90	100	50	70	100	100	70	70	
Cn1nc(-c2cc(C3OCCS3)c(Cl)cc2F)c(Cl)c1C(F)(F)F (centres unmarked) [Compound 102]	60	20	100	100	80	90	100	100	30	80	90	20	100	100	90	100	100	100	60	100	
Cn1nc(-c2cc(CBr)c(Cl)cc2F)c(Cl)c1C(F)(F)F [Compound 108, 3-[5-(bromomethyl)-4-chloro-2-fluorophenyl]-4-chloro-1-methyl-5-(trifluoromethyl)-1H-pyrazole]																					inhibition at 11210 g/ha [1]: 50%; inhibition at 11210 g/ha [2]: 20%; inhibition at 11210 g/ha [3]: 90%; inhibition at 11210 g/ha [4]: 100%; inhibition at 11210 g/ha [5]: 100%; inhibition at 11210 g/ha [6]: 90%; inhibition at 11210 g/ha [7]: 100%; inhibition at 11210 g/ha [8]: 100%; inhibition at 11210 g/ha [9]: 80%; inhibition at 11210 g/ha [10]: 100%; inhibition at 11210 g/ha [11]: 90%; inhibition at 11210 g/ha [12]: 0%; inhibition at 11210 g/ha [13]: 100%; inhibition at 11210 g/ha [14]: 100%; inhibition at 11210 g/ha [15]: 100%; inhibition at 11210 g/ha [16]: 90%; inhibition at 11210 g/ha [17]: 100%; inhibition at 11210 g/ha [18]: 100%; inhibition at 11210 g/ha [19]: 100%; inhibition at 11210 g/ha [20]: 100%
Cn1nc(-c2cc(N)c(Cl)cc2F)c(Cl)c1C(F)F [Compound 178]	20	0	50	100	10	10	100	90	20	30	90	0	100	100	70	70	100	70	90	90	
CC(C)CCOC(=O)c1cc(-c2nn(C)c(C(F)(F)F)c2Cl)c(F)cc1Cl [Compound 141]	20	0	80	70	20	50	90	80	70	70	90	0	100	100	70	90	100	80	90	100	
Cn1nc(-c2ccc(Cl)cc2)c(Cl)c1C(F)(F)F [Compound 82]																					inhibition at 11210 g/ha [1]: 60%; inhibition at 11210 g/ha [2]: 30%; inhibition at 11210 g/ha [3]: 100%; inhibition at 11210 g/ha [4]: 100%; inhibition at 11210 g/ha [5]: 100%; inhibition at 11210 g/ha [6]: 100%; inhibition at 11210 g/ha [7]: 100%; inhibition at 11210 g/ha [8]: 80%; inhibition at 11210 g/ha [9]: 40%; inhibition at 11210 g/ha [10]: 100%; inhibition at 11210 g/ha [11]: 0%; inhibition at 11210 g/ha [12]: 10%; inhibition at 11210 g/ha [13]: 90%; inhibition at 11210 g/ha [14]: 20%; inhibition at 11210 g/ha [15]: 30%; inhibition at 11210 g/ha [16]: 40%; inhibition at 11210 g/ha [17]: 60%; inhibition at 11210 g/ha [18]: 30%; inhibition at 11210 g/ha [19]: 0%; inhibition at 11210 g/ha [20]: 20%
Cn1nc(-c2cc(OCC(=O)O)c(Cl)cc2F)c(Cl)c1C(F)(F)F [Compound 291, (2-Chloro-5-(4-chloro-1-methyl-5-(trifluoromethyl)-1H-pyrazol-3-yl)-4-fluorophenoxy)-acetic acid]	30	30	100	100	20	40	100	40	100	20	0	30	100	100	20	30	90	40	100	20	
